Like-named read-outs stand apart in the source and are kept apart here.
Biological target: T1, human KCa2.3 (Homo sapiens, UniProt Q9UGI6)
T1 construct: The cloning of hKCa2.3 (19 CAG repeats) and hKCa3.1 has been previously described (Wulff et al., 2000)
Assay: Manual whole-cell patch-clamp KCa2.3 activation (COS-7)
Format: cell-based
Source text: Cells, Cell lines and Clones. […] The cloning of hKCa2.3 (19 CAG repeats) and hKCa3.1 has been previously described (Wulff et al., 2000). The hKCa2.3 clone was later stably expressed in COS-7 cells at Aurora Biosciences Corp., San Diego, Calif. Cell lines stably expressing other mammalian ion channels were gifts from several sources: hKCa1.1 in HEK-293 cells (Andrew Tinker, University College London); hKV2.1 in HEK293 cells (James Trimmer, UC Davis); KV11.1 (HERG) in HEK-293 cells (Craig January, University of Wisconsin, Madison); hNaV1.4 in HEK-293 cells (Frank Lehmann-Horn, University of Ulm, Germany), hNaV1.5 in HEK-293 cells (Christopher Lossin, University of California Davis), and hCaV1.2 in HEK-293 cells (Franz Hofmann, Munich, Germany).
Electrophysiology. Experiments were conducted either manually with an EPC-10 amplifier (HEKA, Lambrecht/Pfalz, Germany) or on a QPatch-16 automated electrophysiology platform (Sophion Biosciences, Denmark). […] Patch pipettes were pulled from soda lime glass (micro-hematocrit tubes, Kimble Chase, Rochester, N.Y.) and had resistances of 2-3 MΩ. […] Free Ca^2+ concentrations were calculated with MaxChelator assuming a temperature of 25° C., a pH of 7.2 and an ionic strength of 160 mM. […] Na^+ aspartate Ringer was used as an external solution (in mM): 160 Na^+ aspartate, 4.5 KCl, 2 CaCl2, 1 MgCl2, 5 HEPES, pH 7.4, 290-310 mOsm. […] Reduction of both peak and tail current by the drug was determined. NaV1.7 currents were recorded with 30 ms pulses from −90 mV to −10 mV every 10 sec with a CsF-based pipette solution and normal Ringer as an external solution. CaV1.2 currents were elicited by 100-ms depolarizing pulses from −80 to 20 mV every 10 sec with a CsCl-based pipette solution and an external solution containing 30 mM BaCl2. Blockade of both Na^+ and Ca^2+ currents was determined as reduction of the current minimum.
For all electrophysiology experiments solutions of benzothiazoles and benzooxazoles were always freshly prepared from 1 mM or 10 mM stock solutions in DMSO during the experiment. The final DMSO concentration never exceeded 1%. For automated assays glass vial inserts (Sophion Biosciences, Denmark) were filled with 350-400 μL of compound solution and placed into the glass insert base plate for use in the QPatch assay right before starting the QPatch.
The compounds synthesized by these methods as well as five commercially available compounds were tested for their KCa2.3 and KCa3.1 activating activity using either manual or automated whole-cell patch-clamp. Our group previously described the establishment of a QPatch assay for KCa3.1 modulators. […] We here made use of this assay and determined EC50 values for KCa3.1 activation using HEK-293 cells stably expressing human KCa3.1. Activities on human KCa2.3 were determined by manual electrophysioiogy since we currently only have KCa2.3 available in COS-7 cells, which are difficult to handle on the QPatch.

T1 sequence (Q9UGI6 with tags, fused parts or gaps DUP76-80): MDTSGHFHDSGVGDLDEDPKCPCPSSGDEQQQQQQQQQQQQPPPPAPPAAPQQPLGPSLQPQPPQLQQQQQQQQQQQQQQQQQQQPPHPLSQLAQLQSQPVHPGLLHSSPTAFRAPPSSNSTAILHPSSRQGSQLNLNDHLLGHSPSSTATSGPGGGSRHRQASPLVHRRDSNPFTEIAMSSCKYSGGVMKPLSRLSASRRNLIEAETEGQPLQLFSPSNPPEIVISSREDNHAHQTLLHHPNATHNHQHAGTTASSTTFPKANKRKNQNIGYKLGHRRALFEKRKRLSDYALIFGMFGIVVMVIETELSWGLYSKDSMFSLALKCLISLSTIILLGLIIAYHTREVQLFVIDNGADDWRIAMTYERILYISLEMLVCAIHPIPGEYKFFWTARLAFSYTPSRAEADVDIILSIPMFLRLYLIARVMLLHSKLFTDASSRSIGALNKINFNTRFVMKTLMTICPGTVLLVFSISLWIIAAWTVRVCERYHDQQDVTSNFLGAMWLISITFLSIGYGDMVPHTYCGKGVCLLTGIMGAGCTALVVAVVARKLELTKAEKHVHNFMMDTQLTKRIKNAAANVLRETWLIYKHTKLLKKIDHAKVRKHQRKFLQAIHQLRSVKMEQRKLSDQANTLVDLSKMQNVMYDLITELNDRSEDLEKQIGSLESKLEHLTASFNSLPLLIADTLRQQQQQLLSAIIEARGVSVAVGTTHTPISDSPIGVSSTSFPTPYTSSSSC

Row | SMILES | EC50 (250 nM free Ca2+; read-out: EC50 for KCa2.3 activation) [µM] | Hill coefficient nH, KCa2.3 concentration-response curve (FIG. 4 legend) | EC50 (Table 1; 250 nM free Ca2+; read-out: KCa2.3 EC50) [µM] | EC50 (read-out: EC50 for KCa2.3 activation; 250 nM free Ca2+) [µM]
1 | Cc1cc2nc(N)oc2c2ccccc12 [SKA-121, 5-Methylnaphtho[2,1-d]oxazol-2-amine] | 4.4 ± 2.3 | 1.6 | 4.4 ± 2.6 | –
2 | Cc1cc2sc(N)nc2c2ccccc12 [SKA-111, 5-methylnaphtho[1,2-d]thiazol-2-amine] | – | – | – | 13.7 ± 6.9
